Test results reported in ChEMBL document CHEMBL4665661, “Design, synthesis, and biological activity evaluation of (-)-6-O-desmethylantofine analogues as potent anti-cancer agents” (Bioorg Med Chem, 2019).
Active and inactive are the calls of the source. The calls are words filed in the database; no cut-off is given here.

What was measured:
[1] = system: Bel-7402; assay: Antiproliferative activity against human Bel-7402 cells after 72 hrs by SRB assay; assay type: functional, cell-based; conditions: Bel-7402, 72 h
[2] = system: U-118-MG; assay: Antiproliferative activity against human U-118-MG cells incubated for 72 hrs by MTT assay; assay type: functional, cell-based
[3] = system: MDA-MB-157; assay: Antiproliferative activity against human MDA-MB-157 cells incubated for 72 hrs by MTT assay; assay type: functional, cell-based
[4] = system: MDA-MB-231; assay: Antiproliferative activity against human MDA-MB-231 cells incubated for 72 hrs by MTT assay; assay type: functional, cell-based
[5] = system: SK-BR-3; assay: Antiproliferative activity against human SK-BR-3 cells incubated for 72 hrs by MTT assay; assay type: functional, cell-based
[6] = system: BEL-7404 tumor cell line; assay: Antiproliferative activity against human BEL-7404 cells incubated for 72 hrs by MTT assay; assay type: functional, cell-based
[7] = system: Bel-7402; assay: Antiproliferative activity against human Bel-7402 cells incubated for 72 hrs by MTT assay; assay type: functional, cell-based
[8] = system: HepG2; assay: Antiproliferative activity against human HepG2 cells incubated for 72 hrs by MTT assay; assay type: functional, cell-based
[9] = system: SK-HEP1; assay: Antiproliferative activity against human SK-HEP 1 cells incubated for 72 hrs by MTT assay; assay type: functional, cell-based
[10] = system: HCT-116; assay: Antiproliferative activity against human HCT-116 cells incubated for 72 hrs by MTT assay; assay type: functional, cell-based
[11] = system: SU-DHL-6; assay: Antiproliferative activity against human SU-DHL-6 cells incubated for 72 hrs by MTT assay; assay type: functional, cell-based
[12] = system: Detroit 562; assay: Antiproliferative activity against human Detroit 562 cells incubated for 72 hrs by MTT assay; assay type: functional, cell-based
[13] = system: PC-3; assay: Antiproliferative activity against human PC-3 cells incubated for 72 hrs by MTT assay; assay type: functional, cell-based
[14] = system: Bel-7402; assay: Antiproliferative activity against human Bel-7402 cells at 11 to 33 nM by IncuCyte zoom live cell analysis; assay type: functional, cell-based; conditions: dose nM 11-33
[15] = system: Bel-7402; assay: Inhibition of colony formation in human Bel-7402 cells upto 1 uM incubated for 24 hrs measured after 12 days by 2D colony formation assay; assay type: functional, cell-based; conditions: time 12.0 day
[16] = system: Bel-7402; assay: Inhibition of DNA synthesis in human Bel-7402 cells assessed as Brdu positive cells at 0.1 uM measured after 1 hr by propidium iodide staining-based BrdU incorporation assay (reference value: 29.8%); assay type: functional; design: scale not given: the % may be the effect or the level left; conditions: time 30 min, 0.5 h
[17] = system: Bel-7402; assay: Induction of apoptosis in human Bel-7402 cells assessed as early apoptotic cells at 0.1 uM after 72 hrs by FITC-annexin V/propidium iodide-double staining based flow cytometry (reference value: 0.65%); assay type: functional
[18] = system: Bel-7402; assay: Induction of apoptosis in human Bel-7402 cells assessed as late apoptotic cells at 0.1 uM after 72 hrs by FITC-annexin V/propidium iodide-double staining based flow cytometry (reference value: 3.06%); assay type: functional
[19] = Antiproliferative activity against drug-resistant human KB/VCR cells; assay type: functional, cell-based
[20] = system: KB; assay: Antiproliferative activity against human KB cells; assay type: functional, cell-based
[21] = system: Bel-7402; assay: Cell cycle arrest in human Bel-7402 cells assessed as increase in cell population at S phase at 11 nM by RNase A/propidium iodide staining-based flow cytometric analysis (reference value: 26.3%); assay type: functional
[22] = system: Bel-7402; assay: Cell cycle arrest in human Bel-7402 cells assessed as increase in cell population at S phase at 100 nM by RNase A/propidium iodide staining-based flow cytometric analysis (reference value: 26.3%); assay type: functional
[23] = system: Bel-7402; assay: Effect on DNA damage marker protein level in human Bel-7402 cells assessed as phosphor gamma H2AX at 100 fold antiproliferative IC50 after 1 hr by Western blot analysis; assay type: functional, cell-based
[24] = system: KB; assay: Cell cycle arrest in drug- resistant human KB/VCR cells assessed as inhibition of DNA synthesis by measuring increase in cell population at S phase at 1 to 10 nM upto 12 hrs by RNase A/propidium iodide staining-based flow cytometric analysis; assay type: functional; conditions: dose nM 1-10, time hrs <=12
[25] = system: K562; assay: Cell cycle arrest in human K562 cells assessed as inhibition of DNA synthesis by measuring increase in cell population at S phase at 1 to 100 nM upto 24 hrs by RNase A/propidium iodide staining-based flow cytometric analysis; assay type: functional; conditions: dose nM 1-100, time hrs <=24
[26] = system: K562; assay: Cell cycle arrest in drug- resistant human K562/ADR cells assessed as inhibition of DNA synthesis by measuring increase in cell population at S phase at 1 to 100 nM upto 24 hrs by RNase A/propidium iodide staining-based flow cytometric analysis; assay type: functional; conditions: dose nM 1-100, time hrs <=24

## COc1cc2c3c(c4ccc(OCC#N)cc4c2cc1OC)CN1CCC[C@@H]1C3
[1]
  IC50: 12 nM
[2]
  inhibition: Active
[3]
  inhibition: Active
[4]
  inhibition: Active
[5]
  inhibition: Active
[6]
  inhibition: Active
[7]
  inhibition: Active
[8]
  inhibition: Active
[9]
  inhibition: Active
[10]
  inhibition: Active
[11]
  inhibition: Active
[12]
  inhibition: Active
[13]
  inhibition: Active
[14]
  inhibition: Active
[15]
  inhibition: Active
[16]
  Activity: 13%
[17]
  Activity: 0.78%
[18]
  Activity: 8.29%
[19]
  IC50: 600 nM
[20]
  IC50: 1100 nM
[21]
  Activity: 28.8%
[22]
  Activity: 41.3%
[23]
  Activity: inactive
[24]
  Activity: Active
[25]
  Activity: Active
[26]
  Activity: Active
